The target in the test is T1, KRas-G12D (Homo sapiens, UniProt P01116, G12D).
T1 construct: insert the HiBiT tag onto the N-terminus of one or more of the endogenous KRas alleles; host or cells: AsPC-1 HiBiT-KRasG12D knock-in clone (one tagged allele, two untagged KRasG12D alleles)
As to the kind of experiment: HiBiT Degradation Assay (G12D), AsPC-1 HiBiT-KRasG12D cells, 24 hr. The conditions noted are these: for Dmax: ASPC1, AsPC-1 cells, maximum degradation observed; for DC50: AsPC-1 cells. The test is classed as cell-based. An outline of the steps: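 AsPC-1 cells with CRISPR N-terminal HiBiT knock-in on one endogenous KRasG12D allele, treated 24 hr at 37° C with compound titrations in 0.5% DMSO. Lytic HiBiT luminescence normalized to DMSO, fitted to a 4-parameter model for DC50 and Dmax. Parallel alamar blue (4 hr) checked viability.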
On the technique in general: HiBiT is a short tag that completes a luciferase, so light tracks the accessible tagged protein.

The record followed here is US12448399B2, “Cereblon-based KRAS degrading PROTACs and uses related thereto” (Arvinas Operations, Inc., priority 2023, dated 2025).

By Dmax is commonly meant the greatest extent of degradation seen. Higher therefore signals a fuller loss of target. By DC50 is commonly meant the concentration giving 50% degradation.

T1 sequence (P01116 1-188 isoform P01116-2 G12D): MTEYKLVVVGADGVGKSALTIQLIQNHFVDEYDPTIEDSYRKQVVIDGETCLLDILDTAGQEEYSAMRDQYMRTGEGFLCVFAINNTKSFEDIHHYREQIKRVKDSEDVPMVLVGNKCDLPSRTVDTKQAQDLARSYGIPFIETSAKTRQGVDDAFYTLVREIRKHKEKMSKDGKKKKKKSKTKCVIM

The molecule `C#Cc1c(F)ccc2cc(O)cc(-c3ncc4c(N5CC6CCC(C5)N6)nc(OCC5(CN6CCC(CN7CCN(c8ccc9c(c8Cl)CN(C8CCC(=O)NC8=O)C9=O)CC7)CC6)CC5)nc4c3F)c12` (centres unmarked) [Compound 187, 3-{4-chloro-5-[4-({1-[(1-{[(4-{3,8-diazabicyclo[3.2.1]octan-3-yl}-7-(8-ethynyl-7-fluoro-3-hydroxynaphthalen-1-yl)-8-fluoropyrido[4,3-d]pyrimidin-2-yl)oxy]methyl}cyclopropyl)methyl]piperidin-4-yl}methyl)piperazin-1-yl]-1-oxo-2,3-dihydro-1H-isoindol-2-yl}piperidine-2,6-dione] registered a Dmax above 70% and a DC50 below 5.1 µM.
The corresponding values for `C#Cc1c(F)ccc2cc(O)cc(-c3ncc4c(N5CC6CCC(C5)N6)nc(OCC5(CN6CCN(CC7CCN(c8ccc9c(c8)n(C)c(=O)n9C8CCC(=O)NC8=O)CC7)CC6)CC5)nc4c3F)c12` (centres unmarked) [Compound 188, 3-{5-[4-({4-[(1-{[(4-{3,8-diazabicyclo[3.2.1]octan-3-yl}-7-(8-ethynyl-7-fluoro-3-hydroxynaphthalen-1-yl)-8-fluoropyrido[4,3-d]pyrimidin-2-yl)oxy]methyl}cyclopropyl)methyl]piperazin-1-yl}methyl)piperidin-1-yl]-3-methyl-2-oxo-2,3-dihydro-1H-1,3-benzodiazol-1-yl}piperidine-2,6-dione] are above 70% and below 5.1 µM.
Regarding `C#Cc1c(F)ccc2cc(O)cc(-c3ncc4c(N5CC6CCC(C5)N6)nc(OCC5(CN6CCC(CN7CCN(c8ccc9c(c8)n(C)c(=O)n9C8CCC(=O)NC8=O)CC7)CC6)CC5)nc4c3F)c12` (centres unmarked) [Compound 189, 3-{5-[4-({1-[(1-{[(4-{3,8-diazabicyclo[3.2.1]octan-3-yl}-7-(8-ethynyl-7-fluoro-3-hydroxynaphthalen-1-yl)-8-fluoropyrido[4,3-d]pyrimidin-2-yl)oxy]methyl}cyclopropyl)methyl]piperidin-4-yl}methyl)piperazin-1-yl]-3-methyl-2-oxo-2,3-dihydro-1H-1,3-benzodiazol-1-yl}piperidine-2,6-dione], the Dmax was above 70% and the DC50 was below 5.1 µM.
For `C#Cc1c(F)ccc2cc(O)cc(-c3ncc4c(N5CC6CCC(C5)N6)nc(OCC5(CN6CCC(CC7CCN(c8ccc9c(c8Cl)CN(C8CCC(=O)NC8=O)C9=O)CC7)CC6)CC5)nc4c3F)c12` (centres unmarked) [Compound 190, 3-{4-chloro-5-[4-({1-[(1-{[(4-{3,8-diazabicyclo[3.2.1]octan-3-yl}-7-(8-ethynyl-7-fluoro-3-hydroxynaphthalen-1-yl)-8-fluoropyrido[4,3-d]pyrimidin-2-yl)oxy]methyl}cyclopropyl)methyl]piperidin-4-yl}methyl)piperidin-1-yl]-1-oxo-2,3-dihydro-1H-isoindol-2-yl}piperidine-2,6-dione], the maximal degradation (Dmax) was above 70% and the DC50 is below 5.1 µM.
On to `C#Cc1c(F)ccc2cc(O)cc(-c3ncc4c(N5CC6CCC(C5)N6)nc(OCC5(CN6CCC(CC7CCN(c8ccc9c(c8)n(C(C)C)c(=O)n9C8CCC(=O)NC8=O)CC7)CC6)CC5)nc4c3F)c12` (centres unmarked) [Compound 191, 3-{5-[4-({1-[(1-{[(4-{3,8-diazabicyclo[3.2.1]octan-3-yl}-7-(8-ethynyl-7-fluoro-3-hydroxynaphthalen-1-yl)-8-fluoropyrido[4,3-d]pyrimidin-2-yl)oxy]methyl}cyclopropyl)methyl]piperidin-4-yl}methyl)piperidin-1-yl]-2-oxo-3-(propan-2-yl)-2,3-dihydro-1H-1,3-benzodiazol-1-yl}piperidine-2,6-dione], for which the Dmax is above 70% and the DC50 was below 5.1 µM.
On to `C#Cc1c(F)ccc2cc(O)cc(-c3ncc4c(N5CC6CCC(C5)N6)nc(OCC5(CN6CCC(CC7CCN(c8ccc9c(c8F)CN(C8CCC(=O)NC8=O)C9=O)CC7)CC6)CC5)nc4c3F)c12` (centres unmarked) [Compound 192, 3-{5-[4-({1-[(1-{[(4-{3,8-diazabicyclo[3.2.1]octan-3-yl}-7-(8-ethynyl-7-fluoro-3-hydroxynaphthalen-1-yl)-8-fluoropyrido[4,3-d]pyrimidin-2-yl)oxy]methyl}cyclopropyl)methyl]piperidin-4-yl}methyl)piperidin-1-yl]-4-fluoro-1-oxo-2,3-dihydro-1H-isoindol-2-yl}piperidine-2,6-dione], for which the Dmax is above 70% and the DC50 was below 5.1 µM.
`C#Cc1c(F)ccc2cc(O)cc(-c3ncc4c(N5CC6CCC(C5)N6)nc(OCC5(CN6CCC7(CCN(CC8CCN(c9ccc%10c(c9)n(C)c(=O)n%10C9CCC(=O)NC9=O)CC8)CC7)CC6)CC5)nc4c3F)c12` (centres unmarked) [Compound 193, 3-[5-[4-[[3-[[1-[[4-(3,8-diazabicyclo[3.2.1]octan-3-yl)-7-(8-ethynyl-7-fluoro-3-hydroxy-1-naphthyl)-8-fluoro-pyrido[4,3-d]pyrimidin-2-yl]oxymethyl]cyclopropyl]methyl]-3,9-diazaspiro[5.5]undecan-9-yl]methyl]-1-piperidyl]-3-methyl-2-oxo-benzimidazol-1-yl]piperidine-2,6-dione] gave a Dmax above 70% and a DC50 below 5.1 µM.
`C#Cc1c(F)ccc2cc(O)cc(-c3ncc4c(N5CC6CCC(C5)N6)nc(OC[C@H](C)N5CCC(CC6CCN(CC7CCN(c8ccc9c(c8F)CN(C8CCC(=O)NC8=O)C9=O)CC7)CC6)CC5)nc4c3F)c12` (stereo partly drawn) [Compound 194, 3-[5-[4-[[4-[[1-[(1S)-2-[4-(3,8-diazabicyclo[3.2.1]octan-3-yl)-7-(8-ethynyl-7-fluoro-3-hydroxy-1-naphthyl)-8-fluoro-pyrido[4,3-d]pyrimidin-2-yl]oxy-1-methyl-ethyl]-4-piperidyl]methyl]-1-piperidyl]methyl]-1-piperidyl]-4-fluoro-1-oxo-isoindolin-2-yl]piperidine-2,6-dione] showed a Dmax above 70% and a DC50 below 5.1 µM.
The corresponding values for `C#Cc1c(F)ccc2cc(O)cc(-c3ncc4c(N5CC6CCC(C5)N6)nc(OC[C@H](C)N5CCC(CC6CCN(CC7CCN(c8ccc9c(c8)n(C(C)C)c(=O)n9C8CCC(=O)NC8=O)CC7)CC6)CC5)nc4c3F)c12` (stereo partly drawn) [Compound 195, 3-[5-[4-[[4-[[1-[(1S)-2-[4-(3,8-diazabicyclo[3.2.1]octan-3-yl)-7-(8-ethynyl-7-fluoro-3-hydroxy-1-naphthyl)-8-fluoro-pyrido[4,3-d]pyrimidin-2-yl]oxy-1-methyl-ethyl]-4-piperidyl]methyl]-1-piperidyl]methyl]-1-piperidyl]-3-isopropyl-2-oxo-benzimidazol-1-yl]piperidine-2,6-dione] are above 70% and below 5.1 µM.
The molecule `C#Cc1c(F)ccc2cc(O)cc(-c3ncc4c(N5CC6CCC(C5)N6)nc(OCC5(CN6CCC(CC7CCN(CC8CCN(c9ccc%10c(c9)n(C)c(=O)n%10C9CCC(=O)NC9=O)CC8)CC7)CC6)CC5)nc4c3F)c12` (centres unmarked) [Compound 196, 3-[5-[4-[[4-[[1-[[1-[[4-(3,8-diazabicyclo[3.2.1]octan-3-yl)-7-(8-ethynyl-7-fluoro-3-hydroxy-1-naphthyl)-8-fluoro-pyrido [4,3-d]pyrimidin-2-yl]oxymethyl]cyclopropyl]methyl]-4-piperidyl]methyl]-1-piperidyl]methyl]-1-piperidyl]-3-methyl-2-oxo-benzimidazol-1-yl]piperidine-2,6-dione] had a Dmax above 70% and a 50% degradation concentration (DC50) below 5.1 µM.
Consider `C#Cc1c(F)ccc2cc(O)cc(-c3ncc4c(N5CC6CCC(C5)N6)nc(OCCN5CCC6(CC5)CCN(CC5CCN(c7ccc8c(c7F)n(C)c(=O)n8C7CCC(=O)NC7=O)CC5)CC6)nc4c3F)c12` (centres unmarked) [Compound 197, 3-(5-{4-[(9-{2-[(4-{3,8-diazabicyclo[3.2.1]octan-3-yl}-7-(8-ethynyl-7-fluoro-3-hydroxynaphthalen-1-yl)-8-fluoropyrido[4,3-d]pyrimidin-2-yl)oxy]ethyl}-3,9-diazaspiro[5.5]undecan-3-yl)methyl]piperidin-1-yl}-4-fluoro-3-methyl-2-oxo-2,3-dihydro-1H-1,3-benzodiazol-1-yl)piperidine-2,6-dione], for which the Dmax was above 70% and the DC50 was below 5.1 µM.
Molecule `C#Cc1c(F)ccc2cc(O)cc(-c3ncc4c(N5CC6CCC(C5)N6)nc(OCCN5CCC(F)(CC6CCN(CC7CCN(c8ccc9c(c8)n(C)c(=O)n9C8CCC(=O)NC8=O)CC7)CC6)CC5)nc4c3F)c12` (centres unmarked) [Compound 198, 3-[5-[4-[[4-[[1-[2-[4-(3,8-diazabicyclo[3.2.1]octan-3-yl)-7-(8-ethynyl-7-fluoro-3-hydroxy-1-naphthyl)-8-fluoro-pyrido[4,3-d]pyrimidin-2-yl]oxyethyl]-4-fluoro-4-piperidyl]methyl]-1-piperidyl]methyl]-1-piperidyl]-3-methyl-2-oxo-benzimidazol-1-yl]piperidine-2,6-dione] had a Dmax above 70% and a DC50 below 5.1 µM.
The corresponding values for `C#Cc1c(F)ccc2cc(O)cc(-c3ncc4c(N5CC6CCC(C5)N6)nc(OCCN5CCC(CC6CCN(CC7CCN(c8cc(F)c9c(c8F)n(C)c(=O)n9C8CCC(=O)NC8=O)CC7)CC6)CC5)nc4c3F)c12` (centres unmarked) [Compound 199, 3-{5-[4-({4-[(1-{2-[(4-{3,8-diazabicyclo[3.2.1]octan-3-yl}-7-(8-ethynyl-7-fluoro-3-hydroxynaphthalen-1-yl)-8-fluoropyrido[4,3-d]pyrimidin-2-yl)oxy]ethyl}piperidin-4-yl)methyl]piperidin-1-yl}methyl)piperidin-1-yl]-4,7-difluoro-3-methyl-2-oxo-2,3-dihydro-1H-1,3-benzodiazol-1-yl}piperidine-2,6-dione] are above 70% and below 5.1 µM.
